Measured values: patent US10550105B2 (Ribon Therapeutics Inc., priority 2018, dated 2020)

Biological target: PARP7 (Homo sapiens (Human), UniProt Q7Z3E1)
Assay: Enzymatic assay for inhibition of PARP7: TR-FRET displacement of biotinylated Probe A from the TIPARP active site
Type: binding
Settings: Table A-1
Method in brief: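 Titrated compounds compete with the biotinylated probe; after an additional 30 min incubation at 25° C, time-delayed fluorescence (90 μs) is measured. Inhibition curves use a Hill coefficient that normally floats but may be held at 1.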

PARP7, sequence (Q7Z3E1 whole entry): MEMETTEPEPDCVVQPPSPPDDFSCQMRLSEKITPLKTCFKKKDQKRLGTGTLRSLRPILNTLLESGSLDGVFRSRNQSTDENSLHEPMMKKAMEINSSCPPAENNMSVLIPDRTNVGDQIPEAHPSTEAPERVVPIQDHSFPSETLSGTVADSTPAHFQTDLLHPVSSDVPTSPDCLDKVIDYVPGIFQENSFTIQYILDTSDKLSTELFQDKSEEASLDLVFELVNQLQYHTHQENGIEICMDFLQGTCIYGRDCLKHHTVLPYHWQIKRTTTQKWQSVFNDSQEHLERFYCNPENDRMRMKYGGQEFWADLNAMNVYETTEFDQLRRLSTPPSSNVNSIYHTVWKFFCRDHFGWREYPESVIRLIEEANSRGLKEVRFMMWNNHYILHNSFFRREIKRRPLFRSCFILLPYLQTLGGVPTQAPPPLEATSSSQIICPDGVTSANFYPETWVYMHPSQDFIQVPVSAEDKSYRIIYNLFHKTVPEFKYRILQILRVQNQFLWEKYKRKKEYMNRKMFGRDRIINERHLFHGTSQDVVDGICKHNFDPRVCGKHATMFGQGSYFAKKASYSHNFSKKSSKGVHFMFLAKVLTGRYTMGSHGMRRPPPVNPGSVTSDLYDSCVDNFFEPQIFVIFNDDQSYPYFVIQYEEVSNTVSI

| Compound | IC50 [µM] |
| --- | --- |
| N#Cc1ccc(N2CCN(CCC(=O)NC[C@@H]3CCCN3c3cn[nH]c(=O)c3C(F)(F)F)CC2)nc1 [Example 134, (S)-3-(4-(5-cyanopyridin-2-yl)piperazin-1-yl)-N-((1-(6-oxo-5-(trifluoromethyl)-1,6-dihydropyridazin-4-yl)pyrrolidin-2-yl)methyl)propanamide] | ≥ 1 |
| N#Cc1ccc(N2CCN(C(=O)CCNC[C@@H]3CCCN3c3cn[nH]c(=O)c3C(F)(F)F)CC2)nc1 [Example 135, 6-[4-[3-([[(2S)-1-[6-oxo-5-(trifluoromethyl)-1,6-dihydropyridazin-4-yl]pyrrolidin-2-yl]methyl]amino)propanoyl]piperazin-1-yl]pyridine-3-carbonitrile] | < 0.1 |
| CN(CCC(=O)N1CCN(c2ccc(C#N)cn2)CC1)C[C@@H]1CCCN1c1cn[nH]c(=O)c1C(F)(F)F [Example 136, (S)-6-(4-(3-(methyl((1-(6-oxo-5-(trifluoromethyl)-1,6-dihydropyridazin-4-yl)pyrrolidin-2-yl)methyl)amino)propanoyl)piperazin-1-yl)nicotinonitrile] | < 0.1 |
| N#Cc1ccc(N2CCN(C(=O)CCOC[C@@H]3c4ncccc4CN3c3cn[nH]c(=O)c3C(F)(F)F)CC2)nc1 [Example 137A, 6-[4-(3-[[(7S)-6-[6-oxo-5-(trifluoromethyl)-1,6-dihydropyridazin-4-yl]-5H,6H,7H-pyrrolo[3,4-b]pyridin-7-yl]methoxy]propanoyl)piperazin-1-yl]pyridine-3-carbonitrile] | < 0.1 |
| N#Cc1ccc(N2CCN(C(=O)CCOC[C@H]3c4ncccc4CN3c3cn[nH]c(=O)c3C(F)(F)F)CC2)nc1 [Example 137B, 6-[4-(3-[[(7R)-6-[6-oxo-5-(trifluoromethyl)-1,6-dihydropyridazin-4-yl]-5H,6H,7H-pyrrolo[3,4-b]pyridin-7-yl]methoxy]propanoyl)piperazin-1-yl]pyridine-3-carbonitrile] | < 0.1 |
| CN(C[C@@H]1CCCN1c1cn[nH]c(=O)c1C(F)(F)F)C(=O)CCN1CCN(c2ccc(C#N)cn2)CC1 [Example 138, 3-[4-(5-cyanopyridin-2-yl)piperazin-1-yl]-N-methyl-N-[[(2S)-1-[6-oxo-5-(trifluoromethyl)-1,6-dihydropyridazin-4-yl]pyrrolidin-2-yl]methyl]propanamide] | ≥ 1 |
| COCC1C[C@@H](COCCC(=O)N2CCN(c3ccc(C#N)cn3)CC2)N(c2cn[nH]c(=O)c2C(F)(F)F)C1 (stereo partly drawn) [Example 139, 6-[4-(3-[[(2S)-4-(methoxymethyl)-1-[6-oxo-5-(trifluoromethyl)-1,6-dihydropyridazin-4-yl]pyrrolidin-2-yl]methoxy]propanoyl)piperazin-1-yl]pyridine-3-carbonitrile] | < 0.1 |
| C[C@@H](OCCC(=O)N1CCN(c2ccc(C#N)cn2)CC1)[C@@H]1CCCN1c1cn[nH]c(=O)c1C(F)(F)F [Example 140A, 6-(4-[3-[(1R)-1-[(2S)-1-[6-oxo-5-(trifluoromethyl)-1,6-dihydropyridazin-4-yl]pyrrolidin-2-yl]ethoxy]propanoyl]piperazin-1-yl)pyridine-3-carbonitrile] | < 0.1 |
| C[C@H](OCCC(=O)N1CCN(c2ccc(C#N)cn2)CC1)[C@@H]1CCCN1c1cn[nH]c(=O)c1C(F)(F)F [Example 140B, 6-(4-[3-[(1S)-1-[(2S)-1-[6-oxo-5-(trifluoromethyl)-1,6-dihydropyridazin-4-yl]pyrrolidin-2-yl]ethoxy]propanoyl]piperazin-1-yl)pyridine-3-carbonitrile] | 0.1 to 1 |
| N#Cc1ccc(N2CCN(C(=O)C[C@@H]3CC[C@@H]([C@@H]4CCCN4c4cn[nH]c(=O)c4C(F)(F)F)O3)CC2)nc1 [Example 141A, 6-(4-[2-[(2S,5S)-5-[(2S)-1-[6-oxo-5-(trifluoromethyl)-1,6-dihydropyridazin-4-yl]pyrrolidin-2-yl]oxolan-2-yl]acetyl]piperazin-1-yl)pyridine-3-carbonitrile] | < 0.1 |
| N#Cc1ccc(N2CCN(C(=O)C[C@@H]3CC[C@H]([C@@H]4CCCN4c4cn[nH]c(=O)c4C(F)(F)F)O3)CC2)nc1 [Example 141C, 6-(4-[2-[(2S,5R)-5-[(2S)-1-[6-oxo-5-(trifluoromethyl)-1,6-dihydropyridazin-4-yl]pyrrolidin-2-yl]oxolan-2-yl]acetyl]piperazin-1-yl)pyridine-3-carbonitrile] | 0.1 to 1 |
| N#Cc1ccc(N2CCN(C(=O)C[C@H]3CC[C@H]([C@@H]4CCCN4c4cn[nH]c(=O)c4C(F)(F)F)O3)CC2)nc1 [Example 141D, 6-(4-[2-[(2R,5R)-5-[(2S)-1-[6-oxo-5-(trifluoromethyl)-1,6-dihydropyridazin-4-yl]pyrrolidin-2-yl]oxolan-2-yl]acetyl]piperazin-1-yl)pyridine-3-carbonitrile] | 0.1 to 1 |
| CC(=O)N1CCC[C@@H]2CN(c3cn[nH]c(=O)c3C(F)(F)F)C[C@@H]21 [Example 142, 5-[(4aR,7aR)-1-acetyl-octahydro-1H-pyrrolo[3,4-b]pyridin-6-yl]-4-(trifluoromethyl)-2,3-dihydropyridazin-3-one] | ≥ 1 |
| CC(=O)N1CCC[C@H]2CN(c3cn[nH]c(=O)c3C(F)(F)F)C[C@H]21 [Example 143, 5-[(4aS,7aS)-1-acetyl-octahydro-1H-pyrrolo[3,4-b]pyridin-6-yl]-4-(trifluoromethyl)-2,3-dihydropyridazin-3-one] | ≥ 1 |
| N#Cc1ccc(N2CCN(C(=O)CNCC[C@@H]3c4ccccc4CN3c3cn[nH]c(=O)c3C(F)(F)F)CC2)nc1 [Example 144A, 6-[4-[2-([2-[(1R)-2-[6-oxo-5-(trifluoromethyl)-1,6-dihydropyridazin-4-yl]-2,3-dihydro-1H-isoindol-1-yl]ethyl]amino)acetyl]piperazin-1-yl]pyridine-3-carbonitrile] | < 0.1 |
| N#Cc1ccc(N2CCN(C(=O)CNCC[C@H]3c4ccccc4CN3c3cn[nH]c(=O)c3C(F)(F)F)CC2)nc1 [Example 144B, 6-[4-[2-([2-[(1S)-2-[6-oxo-5-(trifluoromethyl)-1,6-dihydropyridazin-4-yl]-2,3-dihydro-1H-isoindol-1-yl]ethyl]amino)acetyl]piperazin-1-yl]pyridine-3-carbonitrile] | 0.1 to 1 |
| N#Cc1ccc(N2CCN(C(=O)C[C@@H](N)COC[C@@H]3CCCN3c3cn[nH]c(=O)c3C(F)(F)F)CC2)nc1 [Example 145A, 6-[4-[(3R)-3-amino-4-[[(2S)-1-[6-oxo-5-(trifluoromethyl)-1,6-dihydropyridazin-4-yl]pyrrolidin-2-yl]methoxy]butanoyl]piperazin-1-yl]pyridine-3-carbonitrile; formic acid] | < 0.1 |
| N#Cc1ccc(N2CCN(C(=O)C[C@H](N)COC[C@@H]3CCCN3c3cn[nH]c(=O)c3C(F)(F)F)CC2)nc1 [Example 145B, 6-[4-[(3S)-3-amino-4-[[(2S)-1-[6-oxo-5-(trifluoromethyl)-1,6-dihydropyridazin-4-yl]pyrrolidin-2-yl]methoxy]butanoyl]piperazin-1-yl]pyridine-3-carbonitrile; formic acid] | < 0.1 |
| N#Cc1ccc(N2CCN(C(=O)CCNC[C@@H]3c4ccccc4CN3c3cn[nH]c(=O)c3C(F)(F)F)CC2)nc1 [Example 146A, 6-[4-[3-([[(1S)-2-[6-oxo-5-(trifluoromethyl)-1,6-dihydropyridazin-4-yl]-2,3-dihydro-1H-isoindol-1-yl]methyl]amino)propanoyl]piperazin-1-yl]pyridine-3-carbonitrile] | < 0.1 |
